For data set [1], the system named is Rattus norvegicus. Nature of the data set: Toxicity in Wistar rat assessed as bile flow per gm of liver at 5 mg/kg, sc administered as single dose after 5 hrs (reference value: 1.40 +/- 0.14 ul/min). Type of data set: organism-based. On the set-up: dose 5 mg/kg, route subcutaneous. Conditions: in vivo; call rule not given here.
For data set [2], the system named is Rattus norvegicus. Nature of the data set: Toxicity in Wistar rat assessed as biliary excretion of total bile salts per gm of liver at 5 mg/kg, sc administered as single dose after 5 hrs (reference value: 50 +/- 6 nmol/min). Type of data set: organism-based. On the set-up: dose 5 mg/kg, route subcutaneous. Conditions: in vivo.
For data set [3], the system named is Rattus norvegicus. Nature of the data set: Toxicity in Wistar rat assessed as biliary excretion of total glutathione per gm of liver at 5 mg/kg, sc administered as single dose after 5 hrs (reference value: 2 +/- 0.79 nmol/min). Type of data set: organism-based. On the set-up: dose 5 mg/kg, route subcutaneous. Conditions: in vivo.
The subject of data set [4] is Rattus norvegicus. Nature of the data set: Toxicity in Wistar rat assessed as serum ALP activity at 5 mg/kg, sc administered as single dose after 5 hrs (reference value: 256 +/- 10 U/l). Type of data set: organism-based. On the set-up: dose 5 mg/kg, route subcutaneous. To be noted: in vivo.
For data set [5], the system named is Rattus norvegicus. Nature of the data set: Toxicity in Wistar rat assessed as increase in Mrp3 mRNA level at 5 mg/kg, sc administered as single dose after 5 hrs by qRT-PCR analysis. Type of data set: organism-based. Details: dose 5 mg/kg, route subcutaneous. Conditions: in vivo.
For data set [6], the system named is Hepatocyte. The data set is described as follows: Effect on Mrp2 mRNA level in Wistar rat hepatocytes at 1 to 10 uM after 5 hrs by qRT-PCR analysis. Type of data set: ADME, cell-based.
Data set [7] deals with Hepatocyte. Nature of the data set: Effect on total ER level in Wistar rat hepatocytes nuclear extract at 10 uM after 30 to 120 mins by Western blot analysis. Type of data set: ADME, cell-based.

Structures are written as SMILES.

Regarding `C#C[C@]1(O)CC[C@H]2[C@@H]3CCc4cc(O)ccc4[C@H]3CC[C@@]21C` [ETHINYL ESTRADIOL], the Activity was 1.35 µL/min in the data set on Rattus norvegicus [1]; 47 nmol/min in the data set on Rattus norvegicus [2]; 1.8 nmol/min in the data set with Rattus norvegicus [3]; 269 U/L in the data set on Rattus norvegicus [4]; 330% in the data set on Rattus norvegicus [5]; “Not Active” with Hepatocyte [6]. The Activity entry in the data set with Hepatocyte [7] is “Non-toxic”.

(Values after ChEMBL document CHEMBL3525914, “Induction of hepatic multidrug resistance-associated protein 3 by ethynylestradiol is independent of cholestasis and mediated by estrogen receptor” (Drug Metab Dispos, 2013).)
